Experimental data reported in the supplement of paper PMC10307832.

Assays:
Assay in all cases: relative viability (nuclei count vs DMSO), 5 days (fraction); higher = more cells survive
Bemcentinib + AZD7762 = compound: Nc1nc(Nc2ccc3c(c2)CC[C@@H](N2CCCC2)CC3)nn1-c1cc2c(nn1)-c1ccccc1CCC2 [Bemcentinib] + NC(=O)Nc1cc(-c2cccc(F)c2)sc1C(=O)N[C@H]1CCCNC1 [AZD7762] (partner 0.2 µM)
Outline: (§1)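 Dosing by pin tool came one day after lung cancer cell lines were seeded in 1536-well plates, using either one drug or a fixed anchor-drug dose plus five library-drug doses (not always all listed) in √10 steps. After 5 days, nuclei were counted on 4× images. Relative viability is treated-well nuclei count divided by vehicle-well nuclei count, and values are medians of duplicate plates.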

Bemcentinib + OSI-027 = compound: Nc1nc(Nc2ccc3c(c2)CC[C@@H](N2CCCC2)CC3)nn1-c1cc2c(nn1)-c1ccccc1CCC2 [Bemcentinib] + COc1cccc2cc(-c3nc([C@H]4CC[C@H](C(=O)O)CC4)n4ncnc(N)c34)[nH]c12 [OSI-027] (partner 0.5 µM)
Outline: as §1

Axitinib + Pemetrexed = compound: CNC(=O)c1ccccc1Sc1ccc2c(/C=C/c3ccccn3)n[nH]c2c1 [Axitinib] + Nc1nc2[nH]cc(CCc3ccc(C(=O)N[C@@H](CCC(=O)O)C(=O)O)cc3)c2c(=O)[nH]1 [Pemetrexed] (partner 0.2 µM)
Outline: as §1

Axitinib + Lapatinib = compound: CNC(=O)c1ccccc1Sc1ccc2c(/C=C/c3ccccn3)n[nH]c2c1 [Axitinib] + CS(=O)(=O)CCNCc1ccc(-c2ccc3ncnc(Nc4ccc(OCc5cccc(F)c5)c(Cl)c4)c3c2)o1 [Lapatinib] (partner 2 µM)
Outline: as §1

NCI-H650
relative viability (Bemcentinib + AZD7762; first compound 0.04 µM): 0.956
relative viability (Bemcentinib + AZD7762; first compound 0.1265 µM): 0.964
relative viability (Bemcentinib + AZD7762; first compound 0.4 µM): 1.15
relative viability (Bemcentinib + AZD7762; first compound 1.265 µM): 0.886
relative viability (Bemcentinib + AZD7762; first compound 4 µM): 1.17
relative viability (Bemcentinib + OSI-027; first compound 0.04 µM): 0.468
relative viability (Bemcentinib + OSI-027; first compound 0.1265 µM): 0.501
relative viability (Bemcentinib + OSI-027; first compound 0.4 µM): 0.582
relative viability (Bemcentinib + OSI-027; first compound 1.265 µM): 0.496
relative viability (Bemcentinib + OSI-027; first compound 4 µM): 0.512
relative viability (Axitinib + Pemetrexed; first compound 0.005 µM): 1.09
relative viability (Axitinib + Pemetrexed; first compound 0.01581 µM): 0.808
relative viability (Axitinib + Pemetrexed; first compound 0.05 µM): 1.04
relative viability (Axitinib + Pemetrexed; first compound 0.1581 µM): 1.02
relative viability (Axitinib + Pemetrexed; first compound 0.5 µM): 0.855
relative viability (Axitinib + Lapatinib; first compound 0.005 µM): 0.792
relative viability (Axitinib + Lapatinib; first compound 0.01581 µM): 0.837
relative viability (Axitinib + Lapatinib; first compound 0.05 µM): 1.08
relative viability (Axitinib + Lapatinib; first compound 0.1581 µM): 0.919
relative viability (Axitinib + Lapatinib; first compound 0.5 µM): 0.932
